# Several values for one entry are separate records, joined by “and”; a condition that tells them apart may be missing. Identical values can stand only once.
# Columns and labels:
# [1] = cited from earlier work
# [2] = Bidirectional (AP→BL, BL→AP) drug transport across Caco-2 cell monolayers in transwells: cumulative transport, Papp, efflux ratio; HPLC or radiolabeled assay; details: human
# Procedure: (§1) The monolayers used were of between passage 20 and 65 after 15 days of growth. Each experiment was performed in duplicate using two six well-transwell culture plates. The cells were trypsinized as described earlier, and after centrifugation the pellet re-suspended in fresh DMEM (+15%), and the cells counted using a cell counter. A volume of DMEM was added enough to give a cell count of 2 × 10^6 cells per ml, and cells were seeded on the transwell culture plates at a density of 2 × 10^4 cells/cm^2 (~ 100,000 cells per well, since insert membrane growth area = 4.67 cm^2). The plates were then incubated at 37°C and 10% CO2 in a humidified chamber and the media changed every 2-3 days, by aspirating using a suction pump and replacing with an equal volume of DMEM. Transport experiments were conducted 15 to 20 days after seeding. The TEER across the cell monolayers was monitored using a Millicell-ERS in order to assess cell monolayer integrity and the monolayers considered appropriate for the experiment when the TEER values were typically above 500 cm^2 [49, 70].
# (§2) Prior to transport studies, each monolayer was washed and equilibrated with the transport medium (DMEM without FBS). The medium was removed from all AP and BL compartments of the transwells and replaced with 2 ml of the transport medium (DMEM alone), to both compartments and equilibrated for 1 h (37°C, 10% CO2 incubator), after which the TEER was re-assessed and labeled. The medium was then removed from both compartments and replaced with an equal volume of pre-warmed medium containing the compound of interest at the appropriate concentration. For the AP → BL transport, 2 ml of medium containing the desired drug was placed in the AP chamber and 2 ml of the medium alone in the BL chamber, whereas 2 ml of medium containing the drug was placed in the BL and 2 ml of medium on the AP chamber for the BL → AP transport [71]. The effect of the second drug was then assessed by adding the medium containing the original drug and the drug under study to the AP side for AP → BL transport with the medium containing the original drug alone in the BL chamber, and vice-versa for the BL → AP transport. Transport in each direction was done in triplicate. The transwell plates were then incubated (37°C, 10% CO2 incubator), and 100μl of the samples from the AP and BL compartments were taken at 60, 120, 180 and 240 min and quantified either by HPLC method described earlier [45], or by the use of a liquid scintillating counter depending on the drug under study. The HPLC method involved liquid - liquid extraction followed by ultra-high performance liquid chromatography using a Hypurity C18 column and ultraviolet detection set at a wavelength of 215 nm. The mobile phase consisted of ammonium formate, acetonitrile and methanol (57:38:5 v/v). Separation was facilitated via isocratic elution at a flow rate of 1.5 ml/min. For HPLC assays, the concentration used for each drug was 20μg/ml. The concentrations that offered the best detection were selected for radiolabeled assay. […] The integrity of the CCM during the experiment was monitored by measuring the TEER at the beginning (0 min) and the end of the experiment (240min).
# (§3) The results were expressed as apparent permeability coefficient (Papp, unit: cms^-1), the amount of compound transported per second. Papp values were calculated for both AP to BL (PappAtoB), and BL to AP (PappBtoA) movement of the compound. Papp was calculated using the following equation [52, 72]: • Papp (cm/s) = (dQ/dt) x (1/(ACO) • dQ/dt = Steady-state flux (dpm s^-1 or μmol s^-1) • A = Surface area of the filter (cm^2) • CO = Initial concentration in the donor chamber (dpm litre ^-1 or μM)
# (§4) The quotient of secretory permeability and absorptive permeability (PappBL-AP/PappAP-BL) constitutes the efflux ratio, while the reverse (PappAP-BL/PappBL-AP) is the uptake ratio [71].
# Caco-2 cell monolayers = assay: as above
# Procedure: as §1, §2, §3, §4
# [3] = SQV alone (PZQ experiment), 60 min, mean
# [4] = SQV alone (PZQ experiment), 60 min, samples 1-3
# [5] = SQV alone (PZQ experiment), 120 min, mean
# [6] = SQV alone (PZQ experiment), 120 min, samples 1-3
# [7] = SQV alone (PZQ experiment), 180 min, mean
# [8] = SQV alone (PZQ experiment), 180 min, samples 1-3
# [9] = SQV alone (PZQ experiment), 240 min, mean
# [10] = SQV alone (PZQ experiment), 240 min, samples 1-3
# [11] = SQV alone (PZQ experiment), after 60min, mean
# [12] = SQV alone, 60 min, individual experiments 1-3
# [13] = SQV alone, 180 min, individual experiments 1-3
# [14] = SQV alone, 240 min, individual experiments 1-3
# [15] = SQV alone, after 60 min, samples 1-3
smiles,measurement,setting,value
"CC(C)(C)NC(=O)[C@@H]1C[C@@H]2CCCC[C@@H]2CN1C[C@@H](O)[C@H](Cc1ccccc1)NC(=O)[C@H](CC(N)=O)NC(=O)c1ccc2ccccc2n1 [SQV, saquinavir]",Log Kow,[1],2.5
same,Papp A→B at 60 min,"[2]; Caco-2, Papp AP → BL, mean (n=3) after 60 min, drug A alone, or label 'A + B' = transport of A in presence of interacting drug B, concentrations per Table 1",6.9 ×10⁻⁶ cm/s
same,Papp B→A at 60 min,"[2]; Caco-2, Papp BL → AP, mean (n=3) after 60 min, drug A alone, or label 'A + B' = transport of A in presence of interacting drug B, concentrations per Table 1",21.1 ×10⁻⁶ cm/s
same,Papp A→B at 60 min,"[2]; Caco-2, PappAB Papp, SQV alone, after 60 min, samples 1-3",7.01 ×10⁻⁶ cm/s
same,Papp B→A at 60 min,"[2]; Caco-2, PappBA Papp, SQV alone, after 60 min, samples 1-3",25.1 ×10⁻⁶ cm/s
same,Apical to basal transport Mean,Caco-2 cell monolayers; [3],3.18 pmol
same,Basal to apical transport Mean,Caco-2 cell monolayers; [3],6.29 pmol
same,Apical to basal transport,Caco-2 cell monolayers; [4],3.93 pmol and 2.52 pmol and 3.10 pmol
same,Basal to apical transport,Caco-2 cell monolayers; [4],5.98 pmol and 5.60 pmol and 7.29 pmol
same,Apical to basal transport Mean,Caco-2 cell monolayers; [5],4.32 pmol
same,Basal to apical transport Mean,Caco-2 cell monolayers; [5],11.52 pmol
same,Apical to basal transport,Caco-2 cell monolayers; [6],4.59 pmol and 4.09 pmol and 4.29 pmol
same,Basal to apical transport,Caco-2 cell monolayers; [6],10.77 pmol and 11.26 pmol and 12.52 pmol
same,Apical to basal transport Mean,Caco-2 cell monolayers; [7],5.73 pmol
same,Basal to apical transport Mean,Caco-2 cell monolayers; [7],16.09 pmol
same,Apical to basal transport,Caco-2 cell monolayers; [8],5.76 pmol and 5.30 pmol and 6.14 pmol
same,Basal to apical transport,Caco-2 cell monolayers; [8],16.14 pmol and 16.78 pmol and 15.35 pmol
same,Apical to basal transport Mean,Caco-2 cell monolayers; [9],6.40 pmol
same,Basal to apical transport Mean,Caco-2 cell monolayers; [9],20.56 pmol
same,Apical to basal transport,Caco-2 cell monolayers; [10],6.59 pmol and 5.67 pmol and 6.93 pmol
same,Basal to apical transport,Caco-2 cell monolayers; [10],18.19 pmol and 23.27 pmol
same,PappAB Mean,Caco-2 cell monolayers; [11],6.56 ×10⁻⁶ cm/s
same,PappBA Mean,Caco-2 cell monolayers; [11],10.8 ×10⁻⁶ cm/s
same,Apical to basal transport,Caco-2 cell monolayers; [12],2.74 pmol and 2.54 pmol and 3.32 pmol
same,Basal to apical transport,Caco-2 cell monolayers; [12],8.18 pmol and 6.66 pmol and 9.42 pmol
same,Apical to basal transport Mean,"Caco-2 cell monolayers; SQV alone, 60 min, mean, n=3",2.87 pmol
same,Basal to apical transport Mean,"Caco-2 cell monolayers; SQV alone, 60 min, mean, n=3",8.09 pmol
same,Apical to basal transport Mean,"Caco-2 cell monolayers; SQV alone, 120 min, mean, n=3",5.52 pmol
same,Basal to apical transport Mean,"Caco-2 cell monolayers; SQV alone, 120 min, mean, n=3",14.27 pmol
same,Apical to basal transport,Caco-2 cell monolayers; [13],7.42 pmol and 7.24 pmol and 8.40 pmol
same,Basal to apical transport,Caco-2 cell monolayers; [13],18.6 pmol and 17.14 pmol and 18.78 pmol
same,Apical to basal transport Mean,"Caco-2 cell monolayers; SQV alone, 180 min, mean, n=3",7.69 pmol
same,Basal to apical transport Mean,"Caco-2 cell monolayers; SQV alone, 180 min, mean, n=3",18.17 pmol
same,Apical to basal transport,Caco-2 cell monolayers; [14],9.18 pmol and 8.8 pmol
same,Basal to apical transport,Caco-2 cell monolayers; [14],21.42 pmol and 26.66 pmol
same,Apical to basal transport Mean,"Caco-2 cell monolayers; SQV alone, 240 min, mean, n=3",9.74 pmol
same,Basal to apical transport Mean,"Caco-2 cell monolayers; SQV alone, 240 min, mean, n=3",23.51 pmol
same,Apical to basal transport Conc. Apical,Caco-2 cell monolayers; [15],23.25 pmol and 22.93 pmol
same,Basal to apical transport Conc. Basal,Caco-2 cell monolayers; [15],19.35 pmol and 21.54 pmol and 28.21 pmol
same,PappAB Papp,Caco-2 cell monolayers; [15],6.59 ×10⁻⁶ cm/s and 7.13 ×10⁻⁶ cm/s
same,PappBA Papp,Caco-2 cell monolayers; [15],18.4 ×10⁻⁶ cm/s and 19.9 ×10⁻⁶ cm/s
same,Effect on the transport of PZQ,Caco-2 cell monolayers; labelled drug is the interacting drug,did not affect
same,Papp AP → BL,"Caco-2 cell monolayers; mean (n=3) after 60 min, drug A alone, or label 'A + B' = transport of A in presence of interacting drug B, concentrations per Table 1",6.6 ×10⁻⁶ cm/s
